Activity calls are given as the source filed them. The rule behind the calls is not given here.
Each compound was assayed on HeLa cell count decrease (assay: decrease in HeLa cell numbers, dose-response curve, cell enumeration, 50% inhibitory concentration (AID 1117347)).

SMILES	IC50
Nc1nc(=S)c2[nH]cnc2[nH]1	> 10000 nM (inactive)
CCCCCCCCCCCCCCCC[N+](C)(C)CCN(Cc1ccc(OC)cc1)c1ncccn1	349 nM
O=c1[nH]c(=O)n([C@H]2C[C@H](O)[C@@H](CO)O2)cc1Br	> 10000 nM (inactive)
CCN(CC)CCNC(=O)c1c(C)[nH]c(/C=C2\C(=O)Nc3ccc(F)cc32)c1C	1280 nM
COc1ccc2cc3[n+](cc2c1OC)CCc1cc2c(cc1-3)OCO2	> 10000 nM (inactive)
Oc1c(I)cc(Cl)c2cccnc12	> 10000 nM (inactive)
Nc1nc(Cl)nc2c1ncn2[C@@H]1O[C@H](CO)[C@@H](O)[C@@H]1F	5.16 nM
COC(=O)Nc1nc2ccc(C(=O)c3ccccc3)cc2[nH]1	54.2 nM
CCN(CCCCOC(=O)c1ccc(OC)c(OC)c1)C(C)Cc1ccc(OC)cc1 (stereo not drawn)	> 10000 nM (inactive)
CN1CCC(Nc2ncc3ncnc(Nc4ccc(F)c(Cl)c4)c3n2)CC1	> 10000 nM (inactive)
Oc1ccc([C@H]2CNCc3c2ccc(O)c3O)cc1O	> 10000 nM (inactive)
CC[C@H](C)C(=O)O[C@H]1C[C@@H](C)C=C2C=C[C@H](C)[C@H](CC[C@@H]3C[C@@H](O)CC(=O)O3)[C@H]21	> 10000 nM (inactive)
CCCCCCCCCCCCCCCCCCNC(=O)OC1CCN(C(=O)OC[C@H](COC(=O)N(Cc2cccc[n+]2CC)C(=O)c2ccccc2OC)OC)CC1	6140 nM (inactive)
O=C1C(=O)c2ccccc2C(O)=C1C1CCC(c2ccc(Cl)cc2)CC1 (stereo not drawn)	> 10000 nM (inactive)
CCCCCCCCCCCCCCCC[N+](C)(C)Cc1ccccc1	> 10000 nM (inactive)
O=c1c(-c2ccccc2)c1-c1ccccc1	1690 nM
CCCCC1C(=O)N(c2ccccc2)N(c2ccc(O)cc2)C1=O (stereo not drawn)	1660 nM
COCc1c(C(C)C)nc(C(C)C)c(/C=C/[C@@H](O)C[C@@H](O)CC(=O)O)c1-c1ccc(F)cc1	> 10000 nM (inactive)
Cn1cnc([N+](=O)[O-])c1Sc1ncnc2nc[nH]c12	> 10000 nM (inactive)
O=Cc1ccc(O)c(O)c1O	> 10000 nM (inactive)
CC[C@@]1(O)C(=O)OCc2c1cc1n(c2=O)Cc2c-1nc1ccccc1c2/C=N/OC(C)(C)C	2.2 nM
CCN(CC)CCOc1ccc(C(O)(Cc2ccc(Cl)cc2)c2ccc(C)cc2)cc1 (stereo not drawn)	> 10000 nM (inactive)
CC(CC1c2ccccc2CCc2ccccc21)CN(C)C (stereo not drawn)	> 10000 nM (inactive)
CN(C)/N=N/c1nc[nH]c1C(N)=O	> 10000 nM (inactive)
CC(=O)[C@]1(O)Cc2c(O)c3c(c(O)c2[C@@H](O[C@H]2C[C@H](N)[C@H](O)[C@H](C)O2)C1)C(=O)c1ccccc1C3=O	14.2 nM

SMILES	IC50
S=c1nc[nH]c2nc[nH]c12	> 10000 nM (inactive)
Oc1c(Cl)cc(Cl)cc1Sc1cc(Cl)cc(Cl)c1O	> 10000 nM (inactive)
O=C(O)CCc1nc2ccccc2[nH]1	> 10000 nM (inactive)
CC(C)(C)C(=O)OCOP(=O)(COCCn1cnc2c(N)ncnc21)OCOC(=O)C(C)(C)C	134 nM
CCCCCCNC(=O)n1cc(F)c(=O)[nH]c1=O	> 10000 nM (inactive)
CCN(CC)CCOc1ccccc1C(=O)CCc1ccccc1	> 10000 nM (inactive)
CC(C)=CCC/C(C)=C/CC/C(C)=C/C(=O)OCC(=O)[C@@]1(O)CC[C@H]2[C@@H]3CCC4=CC(=O)C=C[C@]4(C)[C@H]3[C@@H](O)C[C@@]21C	59.5 nM
CC(C)(C)C1CCC(CC2=C(O)c3ccccc3C(=O)C2=O)CC1 (stereo not drawn)	> 10000 nM (inactive)
CN(C)c1ccc2nc3ccc(=[N+](C)C)cc-3sc2c1	> 10000 nM (inactive)
O=C1c2c(O)ccc(O)c2C(=O)c2c(NCCNCCO)ccc(NCCNCCO)c21	3.1 nM
COCCOC(=O)C1=C(C)NC(C)=C(C(=O)OC/C=C/c2ccccc2)C1c1cccc([N+](=O)[O-])c1 (stereo not drawn)	> 10000 nM (inactive)
Cc1ccc(S(=O)(=O)NC(=O)NN2CC3CCCC3C2)cc1 (stereo not drawn)	> 10000 nM (inactive)
CCCOc1ccc2nc(NC(=O)OC)[nH]c2c1	46.7 nM
NCCCC[C@H](N[C@@H](CCc1ccccc1)C(=O)O)C(=O)N1CCC[C@H]1C(=O)O	> 10000 nM (inactive)
CC(C)OC(=O)OCOP(=O)(CO[C@H](C)Cn1cnc2c(N)ncnc21)OCOC(=O)OC(C)C	289 nM
COc1ccc2cc1Oc1ccc(cc1)C[C@H]1c3c(cc4c(c3Oc3cc5c(cc3OC)CCN(C)[C@@H]5C2)OCO4)CCN1C	5540 nM (inactive)
CCc1nc(N)nc(N)c1-c1ccc(Cl)cc1	> 10000 nM (inactive)
Cc1cc(O)c2ccccc2c1O	2460 nM
CCC(C)n1ncn(-c2ccc(N3CCN(c4ccc(OC[C@H]5CO[C@](Cn6cncn6)(c6ccc(Cl)cc6Cl)O5)cc4)CC3)cc2)c1=O (stereo partly drawn)	> 10000 nM (inactive)
O=C(c1cc(O)c(O)c(O)c1)c1ccc(O)c(O)c1O	> 10000 nM (inactive)
OC[C@H]1O[C@@H](n2cnc3c(=S)nc[nH]c32)[C@H](O)[C@@H]1O	> 10000 nM (inactive)
O=C(CCBr)N1CCN(C(=O)CCBr)CC1	> 10000 nM (inactive)
COc1ccc(-c2ccc3cc(C(=O)O)ccc3c2)cc1C12CC3CC(CC(C3)C1)C2	5490 nM (inactive)
Cc1cc(CC(C)CC(C)(C)C)n(O)c(=O)c1 (stereo not drawn)	133 nM
CCCCCCCCCCCCNCCNCCNCC(=O)O	> 10000 nM (inactive)

SMILES	IC50
Cc1nc(Nc2ncc(C(=O)Nc3c(C)cccc3Cl)s2)cc(N2CCN(CCO)CC2)n1	875 nM
COc1cc([C@@H]2c3cc4c(cc3[C@H](O)[C@H]3COC(=O)[C@H]23)OCO4)cc(OC)c1OC	4.8 nM
COc1cc(NCc2ccc3nc(N)nc(N)c3c2C)cc(OC)c1OC	3810 nM
CCCCCCCCCCCC(=O)[O][Sn]([CH2]CCC)([CH2]CCC)[O]C(=O)CCCCCCCCCCC	> 10000 nM (inactive)
CC(=O)Oc1ccc(C2(c3ccc(OC(C)=O)cc3)Oc3ccccc3NC2=O)cc1	5750 nM (inactive)
O=C(CCl)c1ccc(Cl)cc1Cl	350 nM
C[n+]1c2cc(N)ccc2cc2ccc(N)cc21 (tested in a mixture with another compound)	472 nM
CC(=O)Oc1ccccc1C(=O)Nc1ncc([N+](=O)[O-])s1	> 10000 nM (inactive)
COc1cccc2c1C(=O)c1c(O)c3c(c(O)c1C2=O)C[C@@](O)(C(=O)CO)CC3OC1CC(N2CCOC(OC)C2)C(O)C(C)O1 (stereo partly drawn)	4.68 nM
Cc1ccc2nc(N)[nH]c(=O)c2c1Sc1ccncc1	> 10000 nM (inactive)
Nc1nc(=O)n([C@@H]2O[C@H](CO)[C@@H](O)[C@@H]2F)cc1I	8500 nM (inactive)
CC(=O)N(O)CCCCCNC(=O)CCC(=O)N(O)CCCCCNC(=O)CCC(=O)N(O)CCCCCN	> 10000 nM (inactive)
COC(=O)[C@H]1[C@H]2C[C@@H]3c4[nH]c5cc(OC)ccc5c4CCN3C[C@H]2C[C@@H](OC(=O)/C=C/c2ccc(O)c(OC)c2)[C@@H]1OC	> 10000 nM (inactive)
Cc1nc2ccccc2n1Cc1ccc(Cl)cc1	31.8 nM
O=C(NOCC1CC1)c1ccc(F)c(F)c1Nc1ccc(I)cc1Cl	> 10000 nM (inactive)
COC(=O)Nc1nc2ccc(Sc3ccccc3)cc2[nH]1	9.7 nM
C=C(C)[C@H]1Cc2c(ccc3c2O[C@@H]2COc4cc(OC)c(OC)cc4[C@@H]2C3=O)O1	153 nM
CC(=O)O[C@@]12CO[C@@H]1C[C@H](O)[C@@]1(C)C(=O)[C@H](O)C3=C(C)[C@@H](OC(=O)[C@H](O)[C@@H](NC(=O)OC(C)(C)C)c4ccccc4)C[C@@](O)([C@@H](OC(=O)c4ccccc4)[C@H]21)C3(C)C	1 nM
Cc1nc(N)nc(N)c1-c1ccc(Cl)c(Cl)c1	1010 nM
C1CN(P2(N3CC3)=NP(N3CC3)(N3CC3)=NP(N3CC3)(N3CC3)=N2)CCO1 (stereo not drawn)	> 10000 nM (inactive)
CCCCOC(=O)c1ccc(N)cc1	> 10000 nM (inactive)
CCC(COC(=O)c1cc(OC)c(OC)c(OC)c1)(c1ccccc1)N(C)C (stereo not drawn)	> 10000 nM (inactive)
C[C@@]12C(=O)OC(=O)[C@]1(C)C1CCC2O1	1010 nM

Source: PubChem BioAssay AID1117347 (Cheminformatics & Chemogenomics Research Group (CCRG), …, 2015)
